Experimental data reported in PubChem BioAssay AID179 (DTP/NCI, 2004).
The source made the active and inactive calls.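 Rule for the calls: active = compounds giving half or more protection of infected cells from virus-caused growth loss, again on retest; inactive = the rest.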

Test system: CEM cells HIV-1 protection, formazan growth assay
Assay: NCI AIDS Antiviral Assay
Conditions: for IC50: measured here: growth of uninfected CEM cells
Method in brief: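 Protection of CEM cells against HIV-1 measured as cell growth via soluble formazan read-out, with five concentrations tested on both infected and uninfected cells; failure to protect may reflect toxicity.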

Compound	outcome	EC50	IC50
CC(=O)Oc1c2c(cc3c1C(=O)NC1C3=CC(OC(C)=O)[C@@H](OC(C)=O)[C@H]1OC(C)=O)OCO2 (stereo partly specified)	inactive	–	–
O=C(N/C(=C\c1ccccc1Cl)c1nc2ccccc2[nH]1)c1ccccc1	inactive	–	–
O=C(O)c1ccccc1/C=N/NC1=NCCCCN1	–	> 200 µM	141 µM
Cc1ccc(NC(=O)/C(=N\Nc2ccc([N+](=O)[O-])cc2[N+](=O)[O-])C2C(=O)NC(=O)NC2=O)cc1	inactive	–	–
CC1(CO)OC(n2cc(C(=O)NC(=O)OCc3ccccc3)c(=O)[nH]c2=O)CC1O (stereo unspecified)	–	> 603 µM	372 µM
O=c1c2cc(Br)ccc2nc(-c2ccccc2Cl)n1NCC1(O)OCC(O)C(O)C1O (stereo unspecified)	inactive	–	–
CC(C)CCCCCCCCCCCCC(=O)NCC(=O)NC1C(O)C(O)C(Nc2ncnc3nc[nH]c23)OC1C(O)CO (stereo unspecified)	–	> 0.417 µM	0.00224 µM
COCCOCOC(C)(C)[C@H](CCOC(C)=O)O[Si](c1ccccc1)(c1ccccc1)C(C)(C)C	inactive	–	–
CCc1cccc(C)c1NC(=O)CC1C(=O)Nc2ccccc2S1(=O)=O (stereo unspecified)	–	> 10 µM	> 10 µM
CCOC(=O)C(Cc1cc(OC)c(CC(C(=O)OCC)C(=O)OCC)cc1OC)C(=O)OCC	inactive	–	–
CC(C)OP(=O)(OC(C)C)/C(I)=N/Nc1ccc([N+](=O)[O-])cc1	–	> 110 µM	> 110 µM
Cc1[nH]n(C2=NCCN2)c(=O)c1C	–	> 200 µM	> 200 µM
CC(=O)N1C(OC(C)C)CC(C)N1c1ccccc1 (stereo unspecified)	–	> 200 µM	> 200 µM
Nc1ncnc2c1ncn2C1OC(CSC(F)(F)F)C(O)C1O (stereo unspecified)	–	> 708 µM	112 µM
CC1(C)C(=O)C(C(Cl)(Cl)Cl)=C(Cl)C(=O)C1(Cl)Cl	–	> 200 µM	25.7 µM
CC(Oc1ccc(OCC2CCCCC2)cc1)C(=O)N(CCO)CCO (stereo unspecified)	–	> 692 µM	44.7 µM
CC1OC2COC(C)OC2C(C2CN2)O1 (stereo unspecified)	–	> 933 µM	589 µM
O=C(O)C12C3C4C1C1C2C3C41I (stereo unspecified)	–	> 479 µM	> 479 µM
CC1CC2OC(=N)C1(C#N)C2(C#N)C#N (stereo unspecified)	–	> 200 µM	10.5 µM
CC1C=CC(O)[C@]2(CO)CC3(CCC12)OCCO3 (stereo partly specified)	inactive	–	–
O=C(CC(c1ccc2c(c1)OCO2)N1CCN(C(CC(=O)c2ccc(Br)cc2)c2ccc3c(c2)OCO3)CC1)c1ccc(Br)cc1 (stereo unspecified)	–	> 200 µM	> 200 µM
Cc1[nH]c(=O)[nH]c(=O)c1CN1CCCCC1	–	> 6.46 µM	> 6.46 µM
O=C(O)c1cc2c(cc1CC(Cc1ccc3c(c1)CCC3)C(=O)O)CCC2 (stereo unspecified)	–	> 200 µM	105 µM

Compound	outcome	EC50	IC50
O=[N+]([O-])c1ccc(NC(=S)Nc2ccccn2)cc1	–	> 200 µM	19.1 µM
COc1ccc2c(c1)CCCN2S(=O)(=O)c1ccccc1[N+](=O)[O-]	–	> 200 µM	21.4 µM
CCCNC(=O)CNC(=O)c1ccccc1SC(=O)CCCC[n+]1ccccc1	–	8.32 µM	112 µM
Cc1cccc(N=Nc2c(C)nn(C(=O)CC(=O)Nc3ccc(Cl)cc3)c2C)c1	–	> 200 µM	123 µM
O=S(=O)(C1=CC(S(=O)(=O)c2ccccc2)COC1)c1ccccc1 (stereo unspecified)	inactive	–	–
O=C(Nc1ccccc1)OCCN=c1c2ccccc2ccc2ccccc12	–	17 µM	24.5 µM
COc1ccc2c(c1OC)C(=O)c1cnccc1C2=O	–	60.3 µM	132 µM
CC(=O)NC1C(O)OC(CO)C(OC2OC(CO)C(O)C(O)C2NC(=O)NCCCCCCNC(=O)n2cc(F)c(=O)[nH]c2=O)C1O (stereo unspecified)	inactive	–	–
COc1ccc(CNc2cnc3cc(N)ccc3n2)cc1	–	> 67.6 µM	> 67.6 µM
Cc1cc2nc(CCC(=O)O)c(=O)[nH]c2cc1C	–	> 1000 µM	> 1000 µM
CCOC(=O)/C(C#N)=C/c1ccc(C)cc1	–	> 120 µM	> 120 µM
COC(=O)CCC1(C)C2CCC1(C)/C(=N/O)C2 (stereo unspecified)	–	> 200 µM	> 200 µM
Nc1nnnn1NC(=O)NCCCl	–	> 200 µM	> 200 µM
CCOP(=O)(OCC)C1=NC=CC=CC1n1c(-c2ccccc2)nn(CC)c1=O (stereo unspecified)	–	> 603 µM	417 µM
Clc1ccc(CN2COc3c(ccc4cccnc34)C2)cc1Cl	–	> 200 µM	1.29 µM
COC(=O)C1=C(C(=O)OC)P2(C)(C)OC(c3ccccc3)CN2C1(c1ccccc1)c1ccccc1 (stereo unspecified)	–	> 36.3 µM	4.79 µM
CC1OC(OC2C(O)COC(OC3C(C)OC(OC4C(OC(=O)[C@]56CCC(C)(C)C[C@@H]5C5=CCC7[C@@]8(C)C[C@H](O)[C@H](OC9OC(CO)C(O)C(O)C9O)[C@@](C)(CO)[C@@H]8CC[C@@]7(C)[C@]5(C)CC6)OCC(O)C4O)C(O)C3OC3OCC(O)C(O)C3O)C2O)C(O)C(O)C1O (stereo partly specified)	–	> 58.9 µM	19.5 µM
CC(C)(C)[Si](C)(C)OCC1OC(n2ccc(=O)[nH]c2=O)C(O[Si](C)(C)C(C)(C)C)/C1=C/C#N (stereo unspecified)	–	> 200 µM	8.13 µM
c1ccc2c(c1)N=C(c1cccc3ccccc13)CC(c1cccc3ccccc13)S2 (stereo unspecified)	–	> 2.51 µM	> 2.51 µM
Brc1ccc2c(c1)C1C(CO2)C(c2ccccc2)=NN1c1ccccc1 (stereo unspecified)	–	> 64.6 µM	> 64.6 µM
O=c1c2cccnc2[nH]c2ccc3[nH]ncc3c12	–	> 200 µM	50.1 µM
O=[N+]([O-])C(C=Nc1ccccc1)C=Nc1ccccc1 (stereo unspecified)	–	> 200 µM	107 µM
